Assay results: PMC9151520 (Archives of Toxicology, 2022)
Values joined by “and” are separate entries in the source; they are usually repeats but may differ in a detail not shown here. Identical values can stand only once. Like-named read-outs stand apart in the source and are kept apart here.

Columns and labels:
[1] = system: p53 signaling (p53RE-bla HCT-116 cells)
[2] = system: p53 signaling (p53RE-bla HCT-116 cells); remark: listed apart in the source
[3] = system: p53 signaling (p53RE-bla HCT-116 cells); assay: cells; type: cell-based
[4] = read-out: p53 activation EC50, primary screening
[5] = Homo sapiens, HCT-116, read-out: p53 activation EC50, primary screening
[6] = Homo sapiens, HCT-116, read-out: p53 activation efficacy, primary screening
[7] = read-out: Viability EC50, cherry pick confirmation
[8] = read-out: Viability EC50, primary screening
[9] = read-out: p53 activation EC50, cherry pick confirmation
[10] = Homo sapiens, HCT-116, read-out: EC50, p53 activation, primary screening
[11] = Homo sapiens, HCT-116, read-out: Efficacy, p53 activation, primary screening
[12] = Homo sapiens, HCT-116, read-out: p53 activation EC50, cherry pick confirmation
[13] = Homo sapiens, HCT-116, read-out: p53 activation efficacy, cherry pick confirmation

| Molecule | p53 activation EC50, cherry pick confirmation [1] | p53 activation efficacy, cherry pick confirmation [1] | p53 activation EC50, cherry pick confirmation [2] | p53 activation EC50, primary screening [2] | p53 activation efficacy, cherry pick confirmation [2] | Viability EC50, cherry pick confirmation (p53RE-bla HCT-116 cells) | Viability EC50, primary screening (p53RE-bla HCT-116 cells) | Viability efficacy, cherry pick confirmation (p53RE-bla HCT-116 cells) | Viability efficacy, primary screening (p53RE-bla HCT-116 cells) | p53 activation efficacy, cherry pick confirmation [3] | p53 activation efficacy, primary screening [3] | p53 activation EC50, primary screening [1] | p53 activation efficacy, primary screening [1] | p53 activation efficacy, primary screening [2] | EC50 [3, 9] [µM] | further results |
| --- | --- | --- | --- | --- | --- | --- | --- | --- | --- | --- | --- | --- | --- | --- | --- | --- |
| NS(=O)(=O)O [Sulfamic acid] | inactive | inactive | inactive | inactive | inactive | inactive | inactive | inactive | inactive | inactive | inactive | – | – | – | – | EC50 [1, 4]: 24.2 µM; p53 activation EC50, cherry pick confirmation [3]: inactive; p53 activation EC50, primary screening [3]: inactive |
| CCC[CH2][Sn]([Cl])([Cl])[CH2]CCC [Dibutyltin dichloride] | – | – | – | – | – | – | – | – | – | – | – | – | – | – | – | EC50, p53 activation, cherry pick confirmation [1]: inactive; EC50, p53 activation, primary screening [1]: inactive; Efficacy, p53 activation, cherry pick confirmation [1]: inactive; Efficacy, p53 activation, primary screening [1]: inactive; EC50, p53 activation, cherry pick confirmation [2]: inactive; EC50, p53 activation, primary screening [2]: inactive; Efficacy, p53 activation, cherry pick confirmation [2]: inactive; Efficacy, p53 activation, primary screening [2]: inactive; EC50, viability, primary screening (p53RE-bla HCT-116 cells): inactive; EC50, p53 activation, cherry pick confirmation [3]: inactive; Efficacy, p53 activation, cherry pick confirmation [3]: inactive; Efficacy, p53 activation, primary screening [3]: 73.9367; EC50 ([3]; read-out: EC50, p53 activation, primary screening): 27.1 µM |
| N#Cc1c[nH]cc1-c1cccc2c1OC(F)(F)O2 [Fludioxonil] | inactive | inactive | inactive | inactive | inactive | inactive | inactive | inactive | inactive | inactive | – | inactive | inactive | inactive | – | p53 activation EC50, cherry pick confirmation [3]: inactive; EC50 [3, 5]: 15.6 µM; Emax [3, 6]: 65.1% |
| Tricyclodecanedimethanol diacrylate | inactive | inactive | inactive | inactive | inactive | inactive | inactive | – | – | 41.6463 | 37.7867 | inactive | inactive | inactive | 30.6 | EC50 (p53RE-bla HCT-116 cells; [7]): 49.4 µM; EC50 (p53RE-bla HCT-116 cells; [8]): 49.5 µM; EC50 [3, 4]: 44.5 µM |
| CC(C)c1cccc(C(C)C)c1N1C(=O)c2ccc(O)cc2C1=O | inactive | inactive | inactive | inactive | inactive | inactive | inactive | inactive | inactive | 44.7367 | 87.6647 | inactive | inactive | inactive | 3.1 | EC50 [3, 4]: 3.93 µM |
| Tannic acid | inactive | inactive | inactive | inactive | inactive | inactive | inactive | inactive | inactive | 97.9477 | 41.698 | inactive | inactive | inactive | 7.77 | – |
| COC(=O)/C=C(\C)OP(=O)(OC)OC [Mevinphos] | – | – | – | – | – | – | – | – | – | – | – | – | – | – | – | EC50 [1]: 7.96 µM; p53 activation efficacy [1]: 77.3871 and 64.7167; p53 activation EC50 [2]: inactive; Viability EC50 (p53RE-bla HCT-116 cells): inactive; Viability efficacy (p53RE-bla HCT-116 cells): inactive; p53 activation EC50 [3]: inactive; p53 activation efficacy [3]: inactive |
| COC(=O)Nc1nc2ccc(Sc3ccccc3)cc2[nH]1 [Fenbendazole] | – | – | – | – | – | – | – | – | – | – | – | – | – | – | – | EC50, p53 activation, cherry pick confirmation [1]: inactive; EC50, p53 activation, primary screening [1]: inactive; Efficacy, p53 activation, cherry pick confirmation [1]: inactive; Efficacy, p53 activation, primary screening [1]: inactive; EC50, p53 activation, cherry pick confirmation [2]: inactive; EC50, p53 activation, primary screening [2]: inactive; Efficacy, p53 activation, cherry pick confirmation [2]: inactive; Efficacy, p53 activation, primary screening [2]: inactive; EC50, viability, cherry pick confirmation (p53RE-bla HCT-116 cells): inactive; EC50, viability, primary screening (p53RE-bla HCT-116 cells): inactive; Efficacy, viability, cherry pick confirmation (p53RE-bla HCT-116 cells): inactive; Efficacy, viability, primary screening (p53RE-bla HCT-116 cells): inactive; EC50, p53 activation, cherry pick confirmation [3]: inactive; Efficacy, p53 activation, cherry pick confirmation [3]: inactive; EC50 [3, 10]: 0.35 µM; Emax [3, 11]: 71% |
| S=c1[nH]cnc2nc[nH]c12 [6-Mercaptopurine] | inactive | inactive | inactive | inactive | inactive | inactive | inactive | inactive | inactive | – | – | inactive | inactive | inactive | – | EC50 [3, 12]: 9.76 µM; EC50 [3, 5]: 7.97 µM; Emax [3, 13]: 41.7%; Emax [3, 6]: 80.4% |
| Nc1cc(Cl)c(-c2cc(Cl)c(N)cc2Cl)cc1Cl [2,2',5,5'-Tetrachlorobenzidine] | inactive | inactive | inactive | inactive | inactive | inactive | – | – | – | 92.1083 | 80.5693 | inactive | inactive | inactive | 36.2 | EC50 (p53RE-bla HCT-116 cells; [7]): 49.4 µM and 51.3 µM; EC50 (p53RE-bla HCT-116 cells; [8]): 49.5 µM (2×) and 37.5 µM; EC50 [3, 4]: 17.8 µM |
| CCC[S+]([O-])c1ccc2[nH]c(NC(=O)OC)nc2c1 (stereo not shown) [Albendazole oxide] | inactive | inactive | inactive | inactive | inactive | inactive | inactive | inactive | inactive | – | – | inactive | inactive | inactive | – | EC50 [3, 12]: 20.5 µM; EC50 [3, 5]: 12.8 µM; Emax [3, 13]: 37.2%; Emax [3, 6]: 33.8% |
| C=CCOC(Cn1ccnc1)c1ccc(Cl)cc1Cl (stereo not shown) [Imazalil] | – | – | – | – | – | – | – | – | – | – | – | – | – | – | – | EC50, p53 activation, cherry pick confirmation [1]: inactive; EC50, p53 activation, primary screening [1]: inactive; Efficacy, p53 activation, cherry pick confirmation [1]: inactive; Efficacy, p53 activation, primary screening [1]: inactive; EC50, p53 activation, cherry pick confirmation [2]: inactive; EC50, p53 activation, primary screening [2]: inactive; Efficacy, p53 activation, cherry pick confirmation [2]: inactive; Efficacy, p53 activation, primary screening [2]: inactive; EC50, viability, cherry pick confirmation (p53RE-bla HCT-116 cells): inactive; EC50, viability, primary screening (p53RE-bla HCT-116 cells): inactive; Efficacy, viability, cherry pick confirmation (p53RE-bla HCT-116 cells): inactive; Efficacy, viability, primary screening (p53RE-bla HCT-116 cells): inactive; EC50, p53 activation, cherry pick confirmation [3]: inactive; Efficacy, p53 activation, cherry pick confirmation [3]: inactive; EC50 [3, 10]: 49.6 µM; Emax [3, 11]: 41.7% |
| Demeton | – | – | inactive | – | – | inactive | inactive | inactive | inactive | inactive | inactive | – | – | – | – | EC50 [1]: 1.91 µM; EC50 [1, 9]: 1.7 µM; p53 activation EC50, cherry pick confirmation [3]: inactive; p53 activation EC50, primary screening [3]: inactive |
